Source: US20020123524A1, “Treatment of vascular events using lipid-modifying compositions” (priority 1998, published 2002)

What was measured:
[1] = VA-HIT trial: CHD death, nonfatal MI, stroke and other clinical endpoints, adverse events; type: in vivo; conditions: for Relative risk reduction, CHD death/nonfatal MI (heart attacks and cardiac deaths): primary endpoint, p=0.0063
From the text: (§1) This study, the Veterans Administration HDL-C Intervention Trial (VA-HIT), was a seven year, 20 center, randomized, placebo-controlled, double blind secondary prevention trial designed to determine if a fibric acid (e.g., gemfibrozil) reduced the incidence of myocardial infarction (MI) and CHD death in male patients who have low levels of both HDL-C and LDL-C. […] Primary endpoints and the secondary endpoint, stroke, were adjudicated by blinded committees using standard criteria. Gemfibrozil (1200mg/day, orally) was selected with the goal of raising HDL-C and lowering triglycerides (TG) without affecting LDL-C.
(§2) “Low HDL-C” was defined as less than 40 mg/dL and “low LDL-C” was defined as less than 140 mg/dL values which are based on the entrance lipid criteria for the population enrolled in VA-HIT. With these lipid criteria, the mean entrance value at baseline of HDL-C was 32 mg/dL and of LDL-C was 111 mg/dL.
(§3) 2531 patients were enrolled and followed for a median of 5 years. Compliance, lipid changes, endpoints rates, losses to follow-up, and crossovers to active treatment have been consistent with the original projections. At baseline, the mean age was 64 yrs; average lipid values were, in mg/dL: HDL-C 32; TG 161; LDL-C 111; total cholesterol 176. (For comparison, the mean baseline LDL-C in recent major secondary prevention trials was 189 in the Scandinavian Simvastatin Survival Study, 139 in the Cholesterol and Recurrent Events study, and 150 in the Long-Term Intervention with Pravastatin in Ischemic Disease study). The mean body mass index was 29±5. The prevalence of diabetes was 31% and of hypertension 57%. Aspirin and beta blockers were used by 82%, and 43% of patients, respectively.
(§4) VA-HIT was a major clinical trial to investigate whether lipid therapy benefits people with heart disease whose primary lipid abnormality is a low level of HDL-C. The VA-HIT study enrolled 2531 male veterans with heart disease who had low levels of LDL-C cholesterol and low levels of HDL-C cholesterol. The average LDL-C level was 111 mg/dL and HDL-C was 32 mg/dL. Patients were randomly assigned to receive either gemfibrozil or a placebo.
The reduction in the incidence or severity of vascular disease was determined by comparing data from individuals undergoing the methods of the present invention to those who were not. Data regarding the incidence or occurrence of a vascular event including death were obtained from control patients having the same or similar disease states under the same or similar conditions as the individual undergoing the methods of the present invention. The control patient received a placebo, as opposed to the test patients who received the lipid modifying drug.
(§5) 2531 men with CHD enrolled in trial 1991-1993. The trial ended 7/31/98 with median follow-up of 5.1 years. Vital status of patients known is 99.2%. 71% remained on assigned therapy at end of trial which is about the average in a long trial.

[2] = VA-HIT trial: percent change in plasma lipids with gemfibrozil vs placebo; type: in vivo, men; conditions: for Effect on HDL-C level (in words): compared to controls treated with placebo
Description: Lipoproteins levels and triglyceride levels are measured and assessed using routine methods known in the art. Commercially available kits and assays may be used to evaluate the level of HDL-C, LDL-C and level of triglyceride.
as §1, §2, §3, §4, §5

[3] = VA-HIT subgroup analysis: diabetes and hyperinsulinemia, CHD and stroke events, mortality; type: in vivo, men; parameters: Overall Risk Reduction with Gemfibrozil (cardiovascular or cerebrovascular event) / Overall Risk Reduction with Gemfibrozil: concentration or dose not given beside the values; conditions: for Five Year Event Rate, Stroke / Five Year Event Rate, CHD: Gemfibrozil Group
From the text: Determining whether an individual has Type 2 diabetes and/or hyperinsulinemia can be done using assays that are well known in the art. Several assays are commercially available. The levels that define whether an individual has Type 2 diabetes or hyperinsulinemia vary depending on the type of assay used. An example of an assay that can measure glucose tolerance or glucose levels is one that uses glucose oxidase as a reagent. Using such a test, levels of fasting glucose of greater than or equal to about 126 mg/dL characterize a type 2 diabetic. An assay referred to as “Coat-A-Count” (Diagnostic Products, Los Angeles, Calif.) is an example of an assay that measures insulin. Levels of fasting insulin above about 40 μU/mL using the Coat-A-Count assay are levels that characterize an individual with hyperinsulinemia. For the data described in Example 2, insulin resistance (hyperinsulinemia) was defined by the levels of insulin determined in the Framingham Offspring Population. Meigs J B, et al., Metabolic Risk Factors Worsen Continuously Across the Spectrum of Nondiabetic Glucose Tolerance, The Framingham Offspring Study. Ann Intern Med 128:524-533 (1998). Subjects, described in Example 2, were designated as diabetic by having a history of diabetes or a fasting plasma glucose of about 126 mg/dL or greater and as being hyperinsulinemic with a fasting plasma insulin of about 40 μU/mL or greater. This value of insulin marked the 90th percentile of values for subjects with normal glucose tolerance in the Framingham Offspring Study. This value also corresponded to the level of insulin at which there was a significant increase in CHD events in Example 2.
Fibric acid decreases incidence of vascular events in diabetic patients (e.g., events that cause the heart to have irregular rhythms such as ventricular fibrillation, ventricular tachycardia, asystole, and includes, for example, myocardial infarction, angina, and death).
Diabetes mellitus (DM) has long been recognized as a major risk factor for a vascular atherothrombotic event, most particularly coronary heart disease and cerebrovascular disease. […] Although patients with DM were not singled out as a specific recruitment target (i.e., not a specific target for fibrate therapy in VA-HIT), patients with DM frequently have a low HDL-C and, thus, were clearly eligible for VA-HIT and treatment with the fibrate, genfibrozil.
Thus, 31% of VA-HIT patients had diabetes. […] There is evidence that patients with high insulin levels (i.e., patients with “hyperinsulinemia” or “insulin resistance”) but without overt DM have as high a risk of coronary heart disease as is associated with DM itself. Consequently, 47% of patients in VA-HIT had either DM or hyperinsulinemia and in this large subgroup of patients, both coronary heart disease (CHD) events and stroke were higher than in the remainder of VA-HIT patients and the benefit of fibrate therapy was greater.

[4] = gemfibrozil 1200 mg/day orally, men with CHD, low HDL-C and low LDL-C, statistically significant difference vs placebo

Cc1ccc(C)c(OCCCC(C)(C)C(=O)O)c1 [Gemfibrozil, 5-(2,5-dimethylphenoxy)-2,2-dimethylpentanoic acid]
Effectiveness in subgroups (in words) ([1]; both diabetics and non-diabetics, younger as well as older patients): effective
New or recurrent CHD events, including nonfatal MI, CHD death, certain forms of stroke or TIA (in words) ([1]; gemfibrozil 1200 mg/day): significant reduction
Primary endpoint CHD death/nonfatal MI, rate in treatment group ([1]; gemfibrozil 1200 mg/day, median follow-up 5.1 years, placebo 22%): 17%
Major adverse events (deaths from any cause and cancer monitored) ([1]; gemfibrozil 1200 mg/day, seven year study): not associated with any major adverse events
Incidence rate: carotid endarterectomy ([1]; gemfibrozil group, placebo 3.5%): 1.3%
Incidence rate: transient ischemia attack (TIA) ([1]; gemfibrozil group, placebo 4.2%): 1.7%
Incidence rate: total reported stroke ([1]; gemfibrozil group, placebo 7.0%): 5.0%
Incidence rate: hospitalization for congestive heart failure ([1]; gemfibrozil group, placebo 13.3%): 10.6%
Reduction in combined endpoint of heart attacks, cardiac deaths, and strokes ([1]; gemfibrozil vs placebo, p=0.0011): 24%
Relative risk reduction, CHD death/nonfatal MI (heart attacks and cardiac deaths) ([1]; gemfibrozil vs placebo, listed as GEMFIBROZIL): 22%
Relative risk reduction, CHD death/nonfatal MI (heart attacks and cardiac deaths) ([1]; gemfibrozil vs placebo, listed as gemfibrozil): 22%
Number of patients needed to be treated to prevent one heart attack, cardiac death, or stroke ([1]; over a time period (e.g., between 1 and 5 years)): 18 patients
Effect on HDL-C level (in words) [2]: significantly raised
Effect on HDL-C level (in words) ([2]; listed as gemfibrozil): significantly increased
Effect on LDL-C level (in words) ([2]; compared to placebo): did not lower
Effect on triglycerides (in words) ([2]; compared to placebo): lowered
Effect on LDL-C level (in words) ([2]; compared to placebo, listed as gemfibrozil): no effect
Percent change in Lipids: LDL-C ([2]; gemfibrozil 1200 mg/day orally, men with CHD, low HDL-C and low LDL-C, not marked significant): +3.6%
Percent change in Lipids: HDL-C [2, 4]: +7.5%
Percent change in Lipids: Triglycerides [2, 4]: −24.5%
Percent change in Lipids: total cholesterol [2, 4]: −2.9%
RRR (relative risk reduction with gemfibrozil), All-Cause Mortality ([3]; Diabetes + Hyperinsulinemia alone, N 1157, P 0.021): 26%
RRR (relative risk reduction with gemfibrozil), CHD Death ([3]; Diabetes, N 769, P 0.016): 41%
RRR (relative risk reduction with gemfibrozil), All-Cause Mortality ([3]; Diabetes, N 769, P 0.059): 25%
Five Year Event Rate, Stroke ([3]; subgroup All Others, placebo 4.0): 3.2%
Five Year Event Rate, CHD ([3]; subgroup All Others, placebo 16.6): 15.3%
Five Year Event Rate, Stroke ([3]; subgroup Diabetes, placebo 10.5): 6.6%
Five Year Event Rate, CHD ([3]; subgroup Diabetes, placebo 29.4): 21.2%
Five Year Event Rate, Stroke ([3]; subgroup Hyperinsulinemia (includes hyperinsulinemia + diabetes), placebo 8.1): 6.2%
Five Year Event Rate, CHD ([3]; subgroup Hyperinsulinemia (includes hyperinsulinemia + diabetes), placebo 27.7): 20.9%
Five Year Event Rate, Stroke ([3]; subgroup Hyperinsulinemia alone, placebo 4.3): 4.7%
Five Year Event Rate, CHD ([3]; subgroup Hyperinsulinemia alone, placebo 23.1): 16.8%
5-year incidence rate of all-cause mortality (in words) ([3]; patients with DM and isolated hyperinsulinemia analysed together): significantly reduce
Overall Risk Reduction with Gemfibrozil ([3]; subgroup All Others): 10.3%
Overall Risk Reduction with Gemfibrozil (cardiovascular or cerebrovascular event) ([3]; subgroup Diabetes): 30.3%
Overall Risk Reduction with Gemfibrozil ([3]; subgroup Hyperinsulinemia (includes hyperinsulinemia + diabetes)): 24.2%
Overall Risk Reduction with Gemfibrozil ([3]; subgroup Hyperinsulinemia alone): 21.7%
Reduction of CHD death (in words) ([3]; subgroup of patients with DM and hyperinsulinemia): particularly effective
